Here are results for three molecules from patent US10253002B2, “Compounds and methods of treating infections” (Neoculi Pty Ltd., priority 2013, dated 2019).

Where “and” joins values, the source holds several entries; their conditions need not be identical. Equal values may be shown once.

For assay [1], the system named is Staphylococcus aureus T3-129 / Staphylococcus spp. MK1. The assay is described as follows: Synergy studies, checkerboard method (FIC index). The format is cell-based. The conditions noted are these: Staphylococcus spp. Strain MK1.
Assay [2] relates to DNA synthesis in S. aureus ATCC 29213. The assay is described as follows: Macromolecular synthesis assay: DNA synthesis ([3H] thymidine). The conditions noted are these: control; 8 fold the MIC (0.5 μg/mL). The format is cell-based, Staphylococcus aureus. As for the experimental part: (§1) Cells were grown at 35° C. overnight on Trypticase Soy agar. A colony from the plate was used to inoculate 10 ml of Mueller Hinton broth II (MHBII), and the culture was grown to early exponential growth phase (OD600==0.2 to 0.3) while incubating in a shaker at 35° C. and 200 rpm.
When cells reached early exponential phase, 100 μL of culture was added to triplicate wells containing various concentrations of test compound or control antibiotics (5 μL) at 20× the final concentration in 100% DMSO. A 5% DMSO treated culture served as the “no drug” control for all experiments. Cells were added in MHBII at 105% to account for the volume of drug added to each reaction or in M9 minimal medium for protein synthesis reactions. Following 15 min incubation at room temperature, either [^3H] thymidine (DNA synthesis), [^3H] uridine (RNA synthesis) or [^3H] leucine (protein synthesis) was added at 0.5-1.0 μCi per reaction, depending on the experiment. Reactions were allowed to proceed at room temperature for 15-30 min and then stopped by adding 12 μL of cold 5% trichloroacetic acid (TCA) or 5% TCA/2% casamino acids (protein synthesis only). Reactions were incubated on ice for 30 min and the TCA precipitated material was collected on a 25 mm GF/A filter. After washing three times with 5 ml of cold 5% TCA, the filters were rinsed two times with 5 mL 100% ethanol, allowed to dry, and then counted using a Beckman LS3801 liquid scintillation counter.

Another assay concerns VRE. Kind of assay: Broth microdilution MIC, Example 7 (NCL812 and analogues). It is filed as cell-based, Enterococcus spp. The gist of the method:
(§2)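 Turbidity read visually and then at 600 nm defined the MIC (μg/ml), comparing drug-containing wells with a growth-control well lacking antimicrobial. Testing followed the CLSI broth microdilution method, in duplicate, using two strains per organism group.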
For orientation: In broth dilution the organism is exposed to a series of concentrations in liquid medium.

Another assay deals with MRSA. The description is as above. It is filed as cell-based, Staphylococcus aureus. The gist of the method:
as §2

The subject of assay [3] is Gram-negative bacteria (E. coli and Pseudomonas aeruginosa). Kind of assay: Testing of NCL812 analogues, Gram-negative antibacterial activity. It is filed as cell-based. The following applies: MIC testing. As to the method: Minimum inhibitory concentrations (μg/ml) were determined using the broth microdilution method recommended by the Clinical and Laboratory Standards Institute (CLSI). MIC breakpoints were determined by visual assessment and then confirmed using an ELISA plate reader, measuring absorbance levels at 600 nm. Bacterial growth (turbidity) in the wells with antimicrobial was compared with the amount of growth (turbidity) in the growth-control well (containing no antimicrobial). All isolates were tested in duplicate, if there was a difference of greater than one two-fold dilution in the results, the test was repeated a third time. The purity of the isolates was closely monitored during testing by subculturing the prepared bacterial inoculum onto SBA (sheep blood agar). The MICs of the control strains for the antimicrobial ampicillin were determined for each testing run as an internal quality control. The MIC50, […] and MIC range (minimum and maximum) were calculated for each of the bacterial groups.
MICs were determined against two MRSA strains, two VRE strains and one strain each of E. coli and Pseudomonas aeruginosa.

Assay [4] is described as follows: Bioassay ranking of the analogues tested. The conditions noted are these: M + R (MRSA and VRE combined).
For a further assay, the system named is S. pneumoniae isolates. The assay is described as follows: Disk diffusion susceptibility (CLSI/EUCAST), Example 5. It is filed as cell-based, Streptococcus pneumoniae. A digest of the protocol: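 Susceptibility to 12 antimicrobials was categorised (S/I/R) using CLSI breakpoints from zones of complete inhibition, read thrice to the nearest millimetre with the mode taken. Incubation was 16–24 h, 37 °C, 5% CO2.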

Assay [5] has as its system cell wall synthesis in S. aureus ATCC 29213. Kind of assay: Macromolecular synthesis assay: cell wall synthesis ([14C]N-acetylglucosamine). The conditions noted are these: positive control; 8 fold the MIC (2 μg/mL). The format is cell-based, Staphylococcus aureus. As for the experimental part: as §1
Bacterial cells in early exponential growth phase were transferred to M9 minimal medium and added to 1.5 mL eppendorf tubes (100 μL/tube) containing various concentrations of test compound or control antibiotics (5 μL) at 20× the final concentration in 100% DMSO as described above. Following a 5 min incubation at 37° C., [^14C]N-acetylglucosamine (0.4 μCi/reaction) was added to each tube and incubated for 45 min in a 37° C. heating block. Reactions were stopped through the addition of 100 μL of 8% SDS to each tube. Reactions were then heated at 95° C. for 30 min in a heating block, cooled, briefly centrifuged, and spotted onto pre-wet HA filters ([…]). After washing three times with 5 mL of 0.1% SDS, the filters were rinsed two times with 5 ml of deionized water, allowed to dry, and then counted using a Beckman LS3801 liquid scintillation counter.

Assay [6] relates to Staphylococcus pseudintermedius isolates (MSSP and MRSP). The assay is described as follows: Disk diffusion and Epsilometer susceptibility testing, Example 6. It is filed as cell-based. The conditions noted are these: 13 MRSP isolates. A general note: Agar diffusion results depend on both activity and mobility in agar.
Assay [7] concerns S. aureus isolates (HA-MRSA, CA-MRSA, methicillin-susceptible staphylococci). Kind of assay: Kirby-Bauer disc diffusion resistotyping, Example 4. The format is cell-based, Staphylococcus aureus. The conditions noted are these: for Total isolates resistant (Kirby-Bauer disc diffusion): all isolates (n = 30). A digest of the protocol: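 CLSI Kirby-Bauer disc diffusion on Mueller-Hinton agar. Overnight SBA cultures (37 °C) were suspended in saline and adjusted to 0.5 McFarland before spreading. Antibiotic discs were read after 24 h at 37 °C.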

With `O=C(O)c1cn(C2CC2)c2cc(N3CCNCC3)c(F)cc2c1=O` [Ciprofloxacin], the FICI in assay [1] (FIC index of antibiotic with NCL812) was 0.75 and 0.525 and 0.625 and 0.562. Also, the “Antibiotic MIC Alone” value in assay [1] (antibiotic alone) was 0.125 µg/mL and 0.25 µg/mL. For the same molecule, in [1] (antibiotic with NCL812), the “Result (interaction with NCL812)” value is “NE (No effect (NE) was defined as 0.5<FICI<4)”. For the same molecule, the “inhibition of DNA synthesis” value in assay [2] is recorded as “approximately 51%”.
Regarding `CCCC/C(=N\NC(=N)N)c1ccc(Cl)cc1.Cl` [NCL188, (E)-2-(1-(4-chlorophenyl)pentylidene)hydrazine-1-carboximidamide Hydrochloride], the MIC stood at 16 µg/mL in the assay with VRE (Enterococcus, VRE, bioassay ranking, VRE, read-out: VRE) and 16 µg/mL in the assay with MRSA (Staphylococcus aureus, MRSA, bioassay ranking, MRSA, read-out: MRSA). Moreover, the “activity against VRE among analogues” value with VRE (MIC testing, two VRE strains) was “greatest activity”. Besides, the “activity against MRSA among analogues” value in the assay on MRSA (MIC testing, two MRSA strains) is “greatest activity”. Besides, the “level of Gram-negative antibacterial activity among analogues” value in assay [3] was “highest level of Gram-negative antibacterial activity”. Further, in assay [4], the “M + R” value was 16 µg/mL.
In the case of `CN[C@H](CC(C)C)C(=O)N[C@H]1C(=O)N[C@@H](CC(N)=O)C(=O)N[C@H]2C(=O)N[C@H]3C(=O)N[C@H](C(=O)N[C@H](C(=O)O)c4cc(O)cc(O)c4-c4cc3ccc4O)[C@H](O)c3ccc(c(Cl)c3)Oc3cc2cc(c3O[C@@H]2O[C@H](CO)[C@@H](O)[C@H](O)[C@H]2O[C@H]2C[C@](C)(N)[C@H](O)[C@H](C)O2)Oc2ccc(cc2Cl)[C@H]1O` [Vancomycin], the “disk diffusion zone diameter” value in the assay on S. pneumoniae isolates (A66.1) was determined as 25 mm; with S. pneumoniae isolates (D39) it was 22 mm; in the assay on S. pneumoniae isolates (EF3030) it was 22 mm; with S. pneumoniae isolates (L82016), 23 mm; in the assay with S. pneumoniae isolates (P9), 21 mm; with S. pneumoniae isolates (P21) it was 21 mm. Further, the “disk diffusion zone diameter” value with S. pneumoniae isolates (TIGR4) amounted to 22 mm; with S. pneumoniae isolates (WCH16), 23 mm; with S. pneumoniae isolates (WCH43), 20 mm; with S. pneumoniae isolates (WCH46), 21 mm; in the assay with S. pneumoniae isolates (WCH57), 28 mm; in the assay on S. pneumoniae isolates (WCH77) it was 24 mm. For the same molecule, the “disk diffusion zone diameter” value in the assay on S. pneumoniae isolates (WCH86) was 22 mm; in the assay with S. pneumoniae isolates (WCH89) it was 25 mm; in the assay on S. pneumoniae isolates (WCH92) it was 22 mm; in the assay with S. pneumoniae isolates (WCH137), 24 mm; in the assay with S. pneumoniae isolates (WCH158), 22 mm; with S. pneumoniae isolates (WCH184), 23 mm. Further, the “disk diffusion zone diameter” value in the assay with S. pneumoniae isolates (WCH211) stood at 23 mm; in the assay with S. pneumoniae isolates (WU2) it was 21 mm. Also, the “inhibition of cell wall synthesis” value in [5] is listed as 96%. The molecule also showed an MRSP isolates susceptible in assay [6] of 77%. Further, the “isolates resistant (Kirby-Bauer disc diffusion)” value in [7] (CA-MRSA (n = 10)), in assay [7] (HA-MRSA (n = 10)) and in assay [7] (Methicillin-susceptible staphylococci (n = 10)) was 0.00% throughout. Besides, the “Total isolates resistant (Kirby-Bauer disc diffusion)” value in assay [7] is reported as 0.00%; in assay [7] (listed as vancomycin) it was “None of the isolates tested were vancomycin resistant”.
